From patent US20250333394A1, “Tiparp Inhibitor Compounds” (AbbVie Inc., priority 2024, published 2025) come the findings set out here.

pEC50: −log10 of the molar value.

For one assay, the system named is DLD-1 parent cells. Nature of the assay: CellTiter-Glo DLD-1 parent cell assay. In kind it is cell-based. To be noted: Homo sapiens, 144 h, 6 days, read-out: DLD-1 CTG EC50. An outline of the steps: (§1)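 DLD-1 parent (500 cells/well) and DLD-1 BRCA2 (−/−) (1200 cells/well) cells in RPMI 1640 with 10% FBS exposed to compounds at 30 μM to 0.5 nM (3-fold dilutions) for 6 days at 37° C. Viability read by CellTiter-Glo luminescence on day 7.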

Another assay has as its system DLD-1 BRCA2 (−/−) cells. Nature of the assay: CellTiter-Glo DLD-1 BRCA2 (−/−) cell assay for PARP1/2 inhibition. The format is cell-based. To be noted: Homo sapiens, 144 h, 6 days, read-out: DLD-1 BRCA2 (−/−) CTG EC50. An outline of the steps: as §1
For orientation: ATP-based viability assays read luminescence as a measure of living cells.

Another assay relates to IFNβ. The experiment in a line: Tumor selective induction of IFNβ in MC-38 (Ker) syngeneic model. The note with it: 3 hours after last dose, PO once daily for 2 days. In kind it is in vivo, mouse. As for the experimental part: The murine cell line MC-38 derived from C57BL/6 murine colon adenocarcinoma cells was obtained from Kerafast (Boston, MA, USA). A suspension of 2.5×10^5 cells in culture medium mixed with Matrigel® (Corning Life Sciences, Lowell, MA, USA; 1:1, volume:volume) was injected subcutaneously in the right hind flank of female C57BL/6 mice to generate tumor formation. Treatment started when the size of the flank tumors was approximately 500 mm^3. Vehicle and three different doses of Example 1 were administered once daily to each of four to five mice at each dose level for 2 days. Each administration consisted of a single 0.2 mL PO dose in a vehicle formulation (10% ethanol, 30% PEG300, and 60% PHOSAL® 50 PG).
Blood and tumors were collected 3 hours after the last dose. Blood was transferred to microfuge tubes containing E DTA, centrifuged at 2000×g for 8 minutes at 4° C., and the upper plasma layer was transferred to new tubes and frozen at −80° C. Tumors were weighed and 200 to 500 mg of tumor tissue was transferred to microfuge tubes, which were then centrifuged at 15000×g for 10 minutes at 4° C. The supernatant was transferred to a fresh 96 well plate. […] The concentration of IFNβ in the thawed plasma and tumor fluid was determined using a Milliplex MAP mouse IFNβ assay (EMD Millipore, Burlington, MA, USA).

The test system of a further assay is NCI-H1373 tumors. The experiment in a line: NCI-H1373 xenograft tumor model efficacy. To be noted: PO BID for 14 days, SCID-beige mice. In kind it is in vivo, mouse. As for the experimental part:
The human xenograft line NCI-H1373 was obtained from ATCC (American Type Culture Collection, Manassas, Virginia, USA). A suspension of 5×10^6 cells in culture medium mixed with Matrigel® (Corning Life Sciences, Lowell, MA, USA; 1:1, volume:volume) was injected subcutaneously in the right hind flank of female SCID-beige mice to generate tumor formation. Treatment started when the size of the flank tumors was approximately 120 mm^3. The TIPARP inhibition activity of Example 1 was evaluated by dosing five separate treatment groups with vehicle and four different doses of Example 1, administered twice a day (BID) for 14 days. Each administration consisted of a 0.2 mL PO dose in a vehicle formulation (10% ethanol, 30% PEG300, and 60% PHOSAL® 50).

As for `C[C@@H]1CN(c2ncc(C(F)(F)F)cn2)CCN1C(=O)[C@H]1C[C@@H](c2c[nH]c(=O)c(C(F)(F)F)c2)C1` [Example 1, 5-[(1S,3s)-3-{(2R)-2-methyl-4-[5-(trifluoromethyl)pyrimidin-2-yl]piperazine-1-carbonyl}cyclobutyl]-3-(trifluoromethyl)pyridin-2(1H)-one], the values for the pEC50 in the assay with DLD-1 parent cells and with DLD-1 BRCA2 (−/−) cells were < 4.52 and 4.73, respectively. Also, in the assay on IFNβ (plasma), the “induction of IFNβ in plasma” value is “not in plasma”. The “induction of IFNβ in tumors” value with IFNβ (tumor fluid) is listed as “induced IFNβ in MC-38 (Ker) tumors compared to vehicle”. Further, the TGIMax was 26% with NCI-H1373 tumors (Dose A), 46% in the assay on NCI-H1373 tumors (Dose B), 73% with NCI-H1373 tumors (Dose C) and 92% in the assay on NCI-H1373 tumors (Dose D).
